Reference: US10376520B2, “Methods for the treatment of cardiovascular disorders” (Galapagos NV, priority 2015, dated 2019)

Test system: RA patients
Assay: LDL determination, Study 2 (RA patients, monotherapy)
Format: in vivo, human
Settings: for [LDL] Mean CFB / [LDL] Median CFB: Study 2 12 weeks results
Text: Randomized, double-blind, placebo-controlled, multicenter, phase IIb dose finding study of Compound 1 (dosed as a [Compound 1:HCl:3H2O]) administered for 24 weeks as monotherapy to subjects with moderately to severely active rheumatoid arthritis who have an inadequate response to methotrexate alone
Double-blind, placebo-controlled, monotherapy study in subjects with moderately to severely active RA who have an inadequate response to methotrexate (MTX) (oral or parenteral).
280 subjects randomized to one of 3 doses of Compound 1 (dosed as a [Compound 1:HCl:3H2O]) or to placebo, given once daily (q.d.).
Twelve weeks of treatment with Compound 1 (dosed as a [Compound 1:HCl:3H2O]) at 50 mg, 100 mg, or 200 mg q.d.; or placebo. At Week 12, all subjects on placebo and the subjects on the 50 mg dose who have not achieved 20% improvement in swollen joint count (SJC66) and tender joint count (TJC68) will be assigned to 100 mg q.d. in a blinded fashion and will continue treatment until Week 24. Subjects in the other groups will maintain their randomized treatment until Week 24.
The determination of [LDL]-cholesterol is made using an automated method taking advantage of the selective micellary solubilization of [LDL]-cholesterol by a nonionic detergent and the interaction of a sugar compound and lipoproteins (VLDL and chylomicrons).
When a detergent is included in the enzymatic method for cholesterol determination (cholesterol esterase, cholesterol oxidase coupling reaction), the relative reactivities of cholesterol in the lipoprotein fractions increase in this order: [HDL]<chylomicrons <VLDL <[LDL]. In the presence of Mg^2+, a sugar compound markedly reduces the enzymatic reaction of the cholesterol measurement in VLDL and chylomicrons. The combination of a sugar compound with detergent enables the selective determination of [LDL]-cholesterol in serum. (Friedewald et al., 1972; Rifai et al., 1992)
Homogeneous enzymatic colorimetric assay.
In the presence of peroxidase, the hydrogen peroxide generated reacts with 4-aminoantipyrine and Sodium N-(2-hydroxy-3-sulfopropyl)-3,5-dimethoxyaniline (HSDA) to form a purple-blue dye.
The color intensity of this dye is directly proportional to the cholesterol concentration and is measured photometrically.
Human serum and plasma samples [LDL] determination was done on a Roche/Hitachi Cobas c 701/702 system which automatically calculate the analyte concentration of each sample. Samples containing precipitates are centrifuged before performing the assay.

[1] = 50 mg q.d. non responders switching to 100 mg q.d. at week 12, week 1
[2] = 50 mg q.d. non responders switching to 100 mg q.d. at week 12, week 2
[3] = 50 mg q.d. non responders switching to 100 mg q.d. at week 12, week 4
[4] = 50 mg q.d. non responders switching to 100 mg q.d. at week 12, week 8
[5] = 50 mg q.d. non responders switching to 100 mg q.d. at week 12, week 12

## O=C(Nc1nc2cccc(-c3ccc(CN4CCS(=O)(=O)CC4)cc3)n2n1)C1CC1 [Compound 1, cyclopropanecarboxylic acid {5-[4-(1,1-dioxo-thiomorpholin-4-ylmethyl)-phenyl]-[1,2,4]triazolo[1,5-a]pyridin-2yl}-amide]
[1]
  [LDL] Mean percentage CFB - 24 weeks results: −0.30%
  [LDL] Median percentage CFB - 24 weeks results: 2.72%
[2]
  [LDL] Mean percentage CFB - 24 weeks results: 1.96%
  [LDL] Median percentage CFB - 24 weeks results: −0.66%
[3]
  [LDL] Mean percentage CFB - 24 weeks results: 6.21%
  [LDL] Median percentage CFB - 24 weeks results: 1.36%
[4]
  [LDL] Mean percentage CFB - 24 weeks results: 4.76%
  [LDL] Median percentage CFB - 24 weeks results: 2.69%
[5]
  [LDL] Mean percentage CFB - 24 weeks results: 6.13%
  [LDL] Median percentage CFB - 24 weeks results: 3.06%
50 mg q.d. non responders switching to 100 mg q.d. at week 12, week 16
  [LDL] Median percentage CFB - 24 weeks results: 7.11%
50 mg q.d. non responders switching to 100 mg q.d. at week 12, week 20
  [LDL] Median percentage CFB - 24 weeks results: −0.80%
50 mg q.d. non responders switching to 100 mg q.d. at week 12, week 24
  [LDL] Median percentage CFB - 24 weeks results: 5.60%
50 mg q.d. responders, week 1
  [LDL] Mean percentage CFB - 24 weeks results: −0.43%
  [LDL] Median percentage CFB - 24 weeks results: −0.29%
50 mg q.d. responders, week 2
  [LDL] Mean percentage CFB - 24 weeks results: −2.56%
  [LDL] Median percentage CFB - 24 weeks results: −2.27%
50 mg q.d. responders, week 4
  [LDL] Mean percentage CFB - 24 weeks results: 2.09%
  [LDL] Median percentage CFB - 24 weeks results: −1.14%
50 mg q.d. responders, week 8
  [LDL] Mean percentage CFB - 24 weeks results: 6.10%
  [LDL] Median percentage CFB - 24 weeks results: 5.33%
50 mg q.d. responders, week 12
  [LDL] Mean percentage CFB - 24 weeks results: 3.64%
  [LDL] Median percentage CFB - 24 weeks results: 0.69%
50 mg q.d. responders, week 16
  [LDL] Mean percentage CFB - 24 weeks results: 7.12%
  [LDL] Median percentage CFB - 24 weeks results: 7.71%
50 mg q.d. responders, week 20
  [LDL] Mean percentage CFB - 24 weeks results: 1.20%
  [LDL] Median percentage CFB - 24 weeks results: 3.91%
50 mg q.d. responders, week 24
  [LDL] Mean percentage CFB - 24 weeks results: 1.97%
  [LDL] Median percentage CFB - 24 weeks results: −0.19%
50 mg q.d., week 1
  [LDL] Mean percentage CFB - 12 weeks results: −0.40%
  [LDL] Median percentage CFB - 12 weeks results: 0.18%
  [LDL] Mean CFB: 0.011 mmol/L
  [LDL] Median CFB: 0.005 mmol/L
50 mg q.d., week 2
  [LDL] Mean percentage CFB - 12 weeks results: −1.59%
  [LDL] Median percentage CFB - 12 weeks results: −1.23%
  [LDL] Mean CFB: -0.057 mmol/L
  [LDL] Median CFB: -0.040 mmol/L
50 mg q.d., week 4
  [LDL] Mean percentage CFB - 12 weeks results: 2.97%
  [LDL] Median percentage CFB - 12 weeks results: 0.76%
  [LDL] Mean CFB: 0.047 mmol/L
  [LDL] Median CFB: 0.025 mmol/L
50 mg q.d., week 8
  [LDL] Mean percentage CFB - 12 weeks results: 5.80%
  [LDL] Median percentage CFB - 12 weeks results: 4.49%
  [LDL] Mean CFB: 0.142 mmol/L
  [LDL] Median CFB: 0.130 mmol/L
50 mg q.d., week 12
  [LDL] Mean percentage CFB - 12 weeks results: 4.19%
  [LDL] Median percentage CFB - 12 weeks results: 1.14%
100 mg q.d., week 1
  [LDL] Mean percentage CFB - 12 weeks results: 6.36%
  [LDL] Mean percentage CFB - 24 weeks results: 6.36%
  [LDL] Median percentage CFB - 12 weeks results: 1.97%
  [LDL] Median percentage CFB - 24 weeks results: 1.97%
100 mg q.d., week 2
  [LDL] Mean percentage CFB - 12 weeks results: 6.15%
  [LDL] Mean percentage CFB - 24 weeks results: 6.15%
  [LDL] Median percentage CFB - 24 weeks results: −1.82%
100 mg q.d., week 4
  [LDL] Mean percentage CFB - 12 weeks results: 10.29%
  [LDL] Mean percentage CFB - 24 weeks results: 10.29%
  [LDL] Median percentage CFB - 12 weeks results: 5.08%
  [LDL] Median percentage CFB - 24 weeks results: 5.08%
100 mg q.d., week 8
  [LDL] Mean percentage CFB - 12 weeks results: 7.39%
  [LDL] Mean percentage CFB - 24 weeks results: 7.39%
  [LDL] Median percentage CFB - 12 weeks results: 5.34%
  [LDL] Median percentage CFB - 24 weeks results: 5.34%
100 mg q.d., week 12
  [LDL] Mean percentage CFB - 12 weeks results: 14.31%
  [LDL] Mean percentage CFB - 24 weeks results: 14.31%
  [LDL] Median percentage CFB - 12 weeks results: 5.78%
  [LDL] Median percentage CFB - 24 weeks results: 5.78%
100 mg q.d., week 16
  [LDL] Mean percentage CFB - 24 weeks results: 12.10%
  [LDL] Median percentage CFB - 24 weeks results: 7.81%
100 mg q.d., week 20
  [LDL] Mean percentage CFB - 24 weeks results: 12.84%
  [LDL] Median percentage CFB - 24 weeks results: 7.74%
100 mg q.d., week 24
  [LDL] Mean percentage CFB - 24 weeks results: 14.01%
  [LDL] Median percentage CFB - 24 weeks results: 9.61%
200 mg q.d., week 1
  [LDL] Mean percentage CFB - 12 weeks results: 8.06%
  [LDL] Mean percentage CFB - 24 weeks results: 8.06%
  [LDL] Median percentage CFB - 12 weeks results: 6.59%
  [LDL] Median percentage CFB - 24 weeks results: 6.59%
200 mg q.d., week 2
  [LDL] Mean percentage CFB - 12 weeks results: 8.39%
  [LDL] Mean percentage CFB - 24 weeks results: 8.39%
  [LDL] Median percentage CFB - 12 weeks results: 5.81%
  [LDL] Median percentage CFB - 24 weeks results: 5.81%
200 mg q.d., week 4
  [LDL] Mean percentage CFB - 12 weeks results: 9.99%
  [LDL] Mean percentage CFB - 24 weeks results: 9.99%
  [LDL] Median percentage CFB - 12 weeks results: 10.14%
  [LDL] Median percentage CFB - 24 weeks results: 10.14%
200 mg q.d., week 8
  [LDL] Mean percentage CFB - 12 weeks results: 9.80%
  [LDL] Mean percentage CFB - 24 weeks results: 9.80%
  [LDL] Median percentage CFB - 12 weeks results: 8.13%
  [LDL] Median percentage CFB - 24 weeks results: 8.13%
200 mg q.d., week 12
  [LDL] Mean percentage CFB - 12 weeks results: 16.80%
  [LDL] Mean percentage CFB - 24 weeks results: 16.80%
  [LDL] Median percentage CFB - 12 weeks results: 11.50%
  [LDL] Median percentage CFB - 24 weeks results: 11.50%
200 mg q.d., week 16
  [LDL] Mean percentage CFB - 24 weeks results: 12.24%
  [LDL] Median percentage CFB - 24 weeks results: 9.19%
200 mg q.d., week 20
  [LDL] Mean percentage CFB - 24 weeks results: 14.33%
  [LDL] Median percentage CFB - 24 weeks results: 10.33%
200 mg q.d., week 24
  [LDL] Median percentage CFB - 24 weeks results: 13.81%
